Reference: US10596082B2, “Oral care compositions and methods of use” (Colgate-Palmolive Company, priority 2017, dated 2020)

Tested on: microorganisms
Experiment: Bactericidal testing of toothpaste final base made with contaminated PCC slurry (plate count)
Conditions: final toothpaste base with previously contaminated PCC slurry, plated on MLA, 30° C.
Description: In a stainless steel bucket, water and humectant was first added and stirred using an overhead stirrer (EUROSTAR 200, IKA, North Carolina, USA) equipped with a cowles disperser. Mixing was started at 500 rpm for 1 minute. Gum and salts (buffering agents, sweetener, fluoride) were added next and the resulting solution was mixed at 1,000 rpm for 20 minutes to obtain a gel phase.
A fraction of the gel phase sample was transferred to a new stainless steel bucket. Using an overhead stirrer (EUROSTAR 200, IKA) equipped with a 4-bladed propeller stirrer, mixing was performed at 750 rpm for 1 minute. Next, to the mixture was added water, PCC slurry (previously contaminated for the study purpose), surfactant, and other ingredients (benzyl alcohol/caprylyl glycol or phenethyl alcohol/caprylyl glycol) and mixed for 15 minutes to obtain the final base.
Sample preparation was made by mixing 10 grams of the final base (see Example 1) with 90 mL of diluent (TAT broth (catalog #298410, BD) supplemented with 0.3% NaCl and 4% Tween) to achieve a 1:10 dilution. Serial dilutions of 10^−1 to 10^−6 were made in neutralizing broth (TAT supplemented with 0.3% NaCl), allowed to incubate for 0, 2, 4, 6, 24 and 48 hours, and plated in 15-20 mL of melted Modified Letheen Agar (MLA). Plates were swirled to allow complete dispersion and allowed to solidify. Solidified plates were then inverted and incubated at 30° C. for at least 48 hours. Colonies were counted using a Quebec colony counter (Phoenix Luferco, Brazil). Table 2 presents the study results, showing numbers of microorganisms per gram of product (CFU/) at different time points.

Row | SMILES | numbers of microorganisms per gram of product, 0 hr | numbers of microorganisms per gram of product, 2 hr | numbers of microorganisms per gram of product, 4 hr | numbers of microorganisms per gram of product, 6 hr | numbers of microorganisms per gram of product, 24 hr | numbers of microorganisms per gram of product, 48 hr
1 | OCc1ccccc1 [Benzyl alcohol (0.30%), Benzyl alcohol] | 13,300 CFU/ | 18,250 CFU/ | 13,000 CFU/ | 8,000 CFU/ | 3,650 CFU/ | 125 CFU/
2 | CCCCCCC(O)CO (stereo not drawn) [Caprylyl glycol (0.20%), Caprylyl glycol] | 13,300 CFU/ | 14,000 CFU/ | 1,200 CFU/ | 2,100 CFU/ | 435 CFU/ | 80 CFU/
